Results from ChEMBL document CHEMBL1938384, “Lysine demethylases inhibitors” (J Med Chem, 2011).
pIC50, pKi: −log10 of the molar value. Blank lines part the entries; values can stand above or below the compound they belong to. Calls of active or inactive are those of the source. The calls are words filed in the database; no cut-off is given here.

Columns and labels:
[1] = molecular target: T1, Amine oxidase [flavin-containing] A (Homo sapiens, UniProt P21397)
T1 sequence (P21397 whole entry): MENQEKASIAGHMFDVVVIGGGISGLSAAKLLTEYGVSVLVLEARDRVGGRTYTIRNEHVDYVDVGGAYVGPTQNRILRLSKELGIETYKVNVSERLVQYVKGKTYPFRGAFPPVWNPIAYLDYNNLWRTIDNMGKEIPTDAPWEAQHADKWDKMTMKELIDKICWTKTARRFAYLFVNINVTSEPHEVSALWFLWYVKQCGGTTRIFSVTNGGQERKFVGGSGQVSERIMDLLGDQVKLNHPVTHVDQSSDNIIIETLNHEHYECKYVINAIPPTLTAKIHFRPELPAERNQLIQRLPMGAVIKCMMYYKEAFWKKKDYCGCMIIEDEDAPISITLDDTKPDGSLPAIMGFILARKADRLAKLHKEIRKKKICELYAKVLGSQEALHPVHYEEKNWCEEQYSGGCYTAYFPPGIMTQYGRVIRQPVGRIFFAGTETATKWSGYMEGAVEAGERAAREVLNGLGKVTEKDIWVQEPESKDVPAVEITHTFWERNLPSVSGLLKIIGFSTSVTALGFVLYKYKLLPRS

[2] = molecular target: T2, Amine oxidase [flavin-containing] B (Homo sapiens, UniProt P27338)
T2 sequence (P27338 whole entry): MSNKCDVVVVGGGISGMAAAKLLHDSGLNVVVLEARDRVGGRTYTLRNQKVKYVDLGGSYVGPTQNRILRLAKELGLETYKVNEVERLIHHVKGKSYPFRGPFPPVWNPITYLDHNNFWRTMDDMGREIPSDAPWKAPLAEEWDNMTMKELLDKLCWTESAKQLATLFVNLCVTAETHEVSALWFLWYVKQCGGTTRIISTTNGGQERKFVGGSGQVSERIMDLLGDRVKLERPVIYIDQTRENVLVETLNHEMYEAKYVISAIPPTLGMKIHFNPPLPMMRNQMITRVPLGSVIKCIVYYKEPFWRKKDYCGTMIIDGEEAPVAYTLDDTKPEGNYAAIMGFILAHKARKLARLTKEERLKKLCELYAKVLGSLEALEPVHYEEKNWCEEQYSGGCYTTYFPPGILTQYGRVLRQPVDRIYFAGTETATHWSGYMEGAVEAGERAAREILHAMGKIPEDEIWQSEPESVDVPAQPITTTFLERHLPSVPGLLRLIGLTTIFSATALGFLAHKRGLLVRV

[3] = molecular target: T3, Lysine-specific demethylase 2A (Homo sapiens, UniProt Q9Y2K7)
T3 sequence (Q9Y2K7 whole entry): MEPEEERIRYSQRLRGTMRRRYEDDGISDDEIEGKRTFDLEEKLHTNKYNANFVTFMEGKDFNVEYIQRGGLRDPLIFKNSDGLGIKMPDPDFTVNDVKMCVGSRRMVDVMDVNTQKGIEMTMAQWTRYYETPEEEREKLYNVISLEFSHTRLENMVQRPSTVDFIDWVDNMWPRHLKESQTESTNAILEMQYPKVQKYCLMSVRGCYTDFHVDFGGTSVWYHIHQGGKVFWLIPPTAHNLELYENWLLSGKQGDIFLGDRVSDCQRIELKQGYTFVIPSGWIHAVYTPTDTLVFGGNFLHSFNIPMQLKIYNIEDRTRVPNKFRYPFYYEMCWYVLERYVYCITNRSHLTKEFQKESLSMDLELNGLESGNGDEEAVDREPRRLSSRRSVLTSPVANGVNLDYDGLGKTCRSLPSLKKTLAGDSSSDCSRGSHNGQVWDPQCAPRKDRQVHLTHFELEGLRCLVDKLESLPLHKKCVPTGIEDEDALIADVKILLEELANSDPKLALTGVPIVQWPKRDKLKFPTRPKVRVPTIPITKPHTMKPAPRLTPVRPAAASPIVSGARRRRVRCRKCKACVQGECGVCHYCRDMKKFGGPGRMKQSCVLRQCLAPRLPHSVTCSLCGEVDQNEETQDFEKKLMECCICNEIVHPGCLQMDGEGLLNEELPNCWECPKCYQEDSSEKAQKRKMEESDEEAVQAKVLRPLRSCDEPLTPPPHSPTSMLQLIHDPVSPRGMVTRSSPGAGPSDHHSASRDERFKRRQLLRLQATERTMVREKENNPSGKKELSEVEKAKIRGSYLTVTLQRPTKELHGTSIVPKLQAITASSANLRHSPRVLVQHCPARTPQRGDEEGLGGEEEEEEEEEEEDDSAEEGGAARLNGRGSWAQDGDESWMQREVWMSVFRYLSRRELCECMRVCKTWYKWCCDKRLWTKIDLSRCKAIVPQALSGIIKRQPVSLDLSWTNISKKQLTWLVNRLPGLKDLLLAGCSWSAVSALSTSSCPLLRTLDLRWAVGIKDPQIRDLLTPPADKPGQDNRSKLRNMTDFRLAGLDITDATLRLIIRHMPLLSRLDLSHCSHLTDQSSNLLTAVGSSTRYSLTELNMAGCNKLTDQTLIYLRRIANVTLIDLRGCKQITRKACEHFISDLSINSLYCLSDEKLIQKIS

[4] = molecular target: T4, Egl nine homolog 1 (Homo sapiens, UniProt Q9GZT9)
Target sequence in this assay (Q9GZT9 whole entry): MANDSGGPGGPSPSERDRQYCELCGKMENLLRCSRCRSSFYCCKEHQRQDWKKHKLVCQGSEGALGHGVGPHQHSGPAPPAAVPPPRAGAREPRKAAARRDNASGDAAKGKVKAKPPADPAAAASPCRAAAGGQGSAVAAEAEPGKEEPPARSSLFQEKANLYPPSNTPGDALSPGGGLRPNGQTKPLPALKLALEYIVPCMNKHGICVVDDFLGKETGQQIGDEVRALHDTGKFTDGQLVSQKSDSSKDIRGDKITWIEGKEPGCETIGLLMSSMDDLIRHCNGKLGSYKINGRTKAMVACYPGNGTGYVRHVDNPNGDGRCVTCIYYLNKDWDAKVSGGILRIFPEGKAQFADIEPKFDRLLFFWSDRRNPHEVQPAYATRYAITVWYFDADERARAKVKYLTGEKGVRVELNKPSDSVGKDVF

[5] = molecular target: Hypoxia-inducible factor 1-alpha inhibitor (Homo sapiens, UniProt Q9NWT6)
Chain of Hypoxia-inducible factor 1-alpha inhibitor (Q9NWT6 whole entry): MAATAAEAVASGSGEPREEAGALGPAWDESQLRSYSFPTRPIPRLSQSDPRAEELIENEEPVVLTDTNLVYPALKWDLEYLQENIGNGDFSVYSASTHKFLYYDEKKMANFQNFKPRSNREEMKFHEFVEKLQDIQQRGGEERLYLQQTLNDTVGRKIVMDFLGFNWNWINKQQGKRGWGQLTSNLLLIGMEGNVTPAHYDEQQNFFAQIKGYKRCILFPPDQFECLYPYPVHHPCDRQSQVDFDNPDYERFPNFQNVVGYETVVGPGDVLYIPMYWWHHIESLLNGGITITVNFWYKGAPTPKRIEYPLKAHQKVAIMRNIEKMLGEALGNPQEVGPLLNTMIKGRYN

[6] = molecular target: T5, Lysine-specific demethylase 4A (Homo sapiens, UniProt O75164)
T5 sequence (O75164 whole entry): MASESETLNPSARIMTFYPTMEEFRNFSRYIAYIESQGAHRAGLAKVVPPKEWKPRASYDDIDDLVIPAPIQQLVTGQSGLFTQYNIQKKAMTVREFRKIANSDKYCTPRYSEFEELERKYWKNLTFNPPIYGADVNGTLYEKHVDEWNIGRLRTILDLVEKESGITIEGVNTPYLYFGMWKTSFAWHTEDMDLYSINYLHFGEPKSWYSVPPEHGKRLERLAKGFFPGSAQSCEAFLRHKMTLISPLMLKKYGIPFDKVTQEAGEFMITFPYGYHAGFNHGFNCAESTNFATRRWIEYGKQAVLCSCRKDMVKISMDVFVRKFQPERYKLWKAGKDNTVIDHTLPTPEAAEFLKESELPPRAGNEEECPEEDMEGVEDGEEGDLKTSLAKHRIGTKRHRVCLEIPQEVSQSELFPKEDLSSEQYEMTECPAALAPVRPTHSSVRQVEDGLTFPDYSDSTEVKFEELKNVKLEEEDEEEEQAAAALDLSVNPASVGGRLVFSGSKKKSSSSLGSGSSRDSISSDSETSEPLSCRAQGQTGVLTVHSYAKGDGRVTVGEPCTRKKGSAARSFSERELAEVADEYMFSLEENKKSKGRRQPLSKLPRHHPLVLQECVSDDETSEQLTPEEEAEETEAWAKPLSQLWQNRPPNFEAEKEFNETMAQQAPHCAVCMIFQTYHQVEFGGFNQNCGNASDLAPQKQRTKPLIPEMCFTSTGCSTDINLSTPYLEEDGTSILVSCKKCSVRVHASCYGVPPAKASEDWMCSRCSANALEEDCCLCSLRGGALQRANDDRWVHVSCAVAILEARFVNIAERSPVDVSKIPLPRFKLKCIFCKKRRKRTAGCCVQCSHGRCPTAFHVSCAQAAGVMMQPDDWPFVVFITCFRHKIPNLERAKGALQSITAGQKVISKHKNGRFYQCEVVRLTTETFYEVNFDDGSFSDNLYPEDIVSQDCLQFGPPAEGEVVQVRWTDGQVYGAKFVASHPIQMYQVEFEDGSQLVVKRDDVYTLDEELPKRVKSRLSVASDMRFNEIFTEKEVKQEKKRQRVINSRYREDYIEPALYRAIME

[7] = molecular target: T4, Egl nine homolog 1; remark: listed apart in the source
Target sequence in this assay (Q9GZT9 2-426 limits assumed): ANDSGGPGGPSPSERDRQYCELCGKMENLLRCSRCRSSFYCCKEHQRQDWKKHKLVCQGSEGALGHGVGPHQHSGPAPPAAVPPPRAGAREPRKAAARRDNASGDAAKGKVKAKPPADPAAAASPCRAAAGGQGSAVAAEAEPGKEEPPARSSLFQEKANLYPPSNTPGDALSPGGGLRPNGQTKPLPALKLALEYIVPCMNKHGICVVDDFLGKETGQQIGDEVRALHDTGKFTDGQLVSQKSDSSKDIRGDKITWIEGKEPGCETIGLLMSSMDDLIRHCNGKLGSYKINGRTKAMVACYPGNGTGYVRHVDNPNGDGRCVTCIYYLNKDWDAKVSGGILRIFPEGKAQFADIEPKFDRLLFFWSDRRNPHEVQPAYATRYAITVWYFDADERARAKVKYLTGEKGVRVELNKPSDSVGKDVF

[8] = molecular target: Lysine-specific demethylase 6B (Homo sapiens, UniProt O15054); assay: Inhibition of KDM6B
Chain of Lysine-specific demethylase 6B (O15054 whole entry): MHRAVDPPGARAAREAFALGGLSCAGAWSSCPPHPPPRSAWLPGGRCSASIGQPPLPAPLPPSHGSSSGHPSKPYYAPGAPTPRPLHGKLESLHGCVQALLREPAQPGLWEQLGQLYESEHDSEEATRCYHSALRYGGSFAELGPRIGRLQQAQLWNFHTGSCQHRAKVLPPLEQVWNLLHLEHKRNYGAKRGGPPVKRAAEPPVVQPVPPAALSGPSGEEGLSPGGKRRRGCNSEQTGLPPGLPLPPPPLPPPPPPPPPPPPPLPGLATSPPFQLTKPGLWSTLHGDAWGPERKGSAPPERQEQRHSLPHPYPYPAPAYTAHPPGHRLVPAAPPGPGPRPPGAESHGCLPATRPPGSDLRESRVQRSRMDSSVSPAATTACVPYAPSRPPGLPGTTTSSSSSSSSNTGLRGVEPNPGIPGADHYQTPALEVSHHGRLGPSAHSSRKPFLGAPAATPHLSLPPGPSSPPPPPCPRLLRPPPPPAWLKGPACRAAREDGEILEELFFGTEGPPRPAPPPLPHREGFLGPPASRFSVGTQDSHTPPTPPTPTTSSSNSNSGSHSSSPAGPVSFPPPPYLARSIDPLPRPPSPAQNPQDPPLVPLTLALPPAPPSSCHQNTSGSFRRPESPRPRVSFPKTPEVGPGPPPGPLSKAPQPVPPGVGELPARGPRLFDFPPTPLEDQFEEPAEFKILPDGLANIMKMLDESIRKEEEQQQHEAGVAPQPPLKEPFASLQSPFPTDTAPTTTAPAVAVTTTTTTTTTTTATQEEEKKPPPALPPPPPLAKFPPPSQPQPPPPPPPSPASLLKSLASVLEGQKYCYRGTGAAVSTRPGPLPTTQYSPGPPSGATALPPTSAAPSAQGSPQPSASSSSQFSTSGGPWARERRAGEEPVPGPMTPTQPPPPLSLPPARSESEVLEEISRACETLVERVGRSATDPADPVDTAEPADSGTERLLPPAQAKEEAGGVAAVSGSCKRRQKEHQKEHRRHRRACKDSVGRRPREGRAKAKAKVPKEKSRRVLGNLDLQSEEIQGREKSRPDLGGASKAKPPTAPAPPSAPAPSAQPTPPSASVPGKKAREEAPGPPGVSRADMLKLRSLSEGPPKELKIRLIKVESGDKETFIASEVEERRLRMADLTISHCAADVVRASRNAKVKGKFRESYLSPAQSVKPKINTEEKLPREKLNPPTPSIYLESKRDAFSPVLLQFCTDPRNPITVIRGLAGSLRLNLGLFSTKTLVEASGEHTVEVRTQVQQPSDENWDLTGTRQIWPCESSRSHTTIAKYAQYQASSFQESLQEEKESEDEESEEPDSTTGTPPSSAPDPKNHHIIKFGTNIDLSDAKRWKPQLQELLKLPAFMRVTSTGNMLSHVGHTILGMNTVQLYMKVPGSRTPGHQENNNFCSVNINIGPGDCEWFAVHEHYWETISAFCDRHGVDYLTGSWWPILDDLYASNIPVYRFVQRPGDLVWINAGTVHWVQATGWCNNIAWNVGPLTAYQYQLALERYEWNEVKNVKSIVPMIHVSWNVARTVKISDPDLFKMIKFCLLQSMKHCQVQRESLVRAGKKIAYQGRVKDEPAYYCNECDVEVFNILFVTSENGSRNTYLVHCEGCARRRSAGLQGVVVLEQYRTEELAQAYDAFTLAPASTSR

[9] = molecular target: Histone lysine demethylase PHF8 (Homo sapiens, UniProt Q9UPP1); assay: Inhibition of KDM7B
Chain of Histone lysine demethylase PHF8 (Q9UPP1 whole entry): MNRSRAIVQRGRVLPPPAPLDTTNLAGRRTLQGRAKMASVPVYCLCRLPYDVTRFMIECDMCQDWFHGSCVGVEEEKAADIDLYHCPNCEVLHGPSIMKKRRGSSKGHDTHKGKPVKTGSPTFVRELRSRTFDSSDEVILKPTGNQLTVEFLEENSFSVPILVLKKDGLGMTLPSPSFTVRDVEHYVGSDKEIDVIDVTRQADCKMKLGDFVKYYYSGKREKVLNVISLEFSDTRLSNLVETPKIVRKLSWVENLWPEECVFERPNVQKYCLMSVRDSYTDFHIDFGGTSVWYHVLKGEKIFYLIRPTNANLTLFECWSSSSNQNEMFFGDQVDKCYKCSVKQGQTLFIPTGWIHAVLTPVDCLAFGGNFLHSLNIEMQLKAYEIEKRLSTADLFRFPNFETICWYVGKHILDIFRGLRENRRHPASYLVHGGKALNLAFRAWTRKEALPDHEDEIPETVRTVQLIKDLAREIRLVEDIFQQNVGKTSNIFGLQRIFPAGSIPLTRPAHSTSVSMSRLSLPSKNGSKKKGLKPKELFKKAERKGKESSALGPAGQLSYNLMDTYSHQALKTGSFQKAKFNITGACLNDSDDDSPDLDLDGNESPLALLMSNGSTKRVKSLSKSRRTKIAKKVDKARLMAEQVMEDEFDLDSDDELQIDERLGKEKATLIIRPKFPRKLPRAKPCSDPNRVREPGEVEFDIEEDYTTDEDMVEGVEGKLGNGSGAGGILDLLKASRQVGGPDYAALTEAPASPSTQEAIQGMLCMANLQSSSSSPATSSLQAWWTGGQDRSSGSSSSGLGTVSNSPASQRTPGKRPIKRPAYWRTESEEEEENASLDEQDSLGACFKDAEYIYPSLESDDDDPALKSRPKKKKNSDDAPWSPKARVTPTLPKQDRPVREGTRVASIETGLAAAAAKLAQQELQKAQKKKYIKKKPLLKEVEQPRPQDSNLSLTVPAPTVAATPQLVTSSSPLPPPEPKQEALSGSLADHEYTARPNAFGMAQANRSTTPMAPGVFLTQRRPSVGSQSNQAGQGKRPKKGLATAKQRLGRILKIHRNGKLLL

[10] = molecular target: Prolyl hydroxylase EGLN3 (Homo sapiens, UniProt Q9H6Z9); assay: Inhibition of PHD3
Chain of Prolyl hydroxylase EGLN3 (Q9H6Z9 whole entry): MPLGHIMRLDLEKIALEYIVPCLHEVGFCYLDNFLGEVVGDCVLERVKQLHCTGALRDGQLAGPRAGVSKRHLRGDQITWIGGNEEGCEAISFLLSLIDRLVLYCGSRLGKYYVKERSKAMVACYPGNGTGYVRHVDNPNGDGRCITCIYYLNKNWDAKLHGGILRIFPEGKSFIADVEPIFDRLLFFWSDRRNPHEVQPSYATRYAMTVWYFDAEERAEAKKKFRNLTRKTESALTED

[11] = molecular target: T6, Lysine-specific demethylase 4C (Homo sapiens, UniProt Q9H3R0)
T6 sequence (Q9H3R0 whole entry): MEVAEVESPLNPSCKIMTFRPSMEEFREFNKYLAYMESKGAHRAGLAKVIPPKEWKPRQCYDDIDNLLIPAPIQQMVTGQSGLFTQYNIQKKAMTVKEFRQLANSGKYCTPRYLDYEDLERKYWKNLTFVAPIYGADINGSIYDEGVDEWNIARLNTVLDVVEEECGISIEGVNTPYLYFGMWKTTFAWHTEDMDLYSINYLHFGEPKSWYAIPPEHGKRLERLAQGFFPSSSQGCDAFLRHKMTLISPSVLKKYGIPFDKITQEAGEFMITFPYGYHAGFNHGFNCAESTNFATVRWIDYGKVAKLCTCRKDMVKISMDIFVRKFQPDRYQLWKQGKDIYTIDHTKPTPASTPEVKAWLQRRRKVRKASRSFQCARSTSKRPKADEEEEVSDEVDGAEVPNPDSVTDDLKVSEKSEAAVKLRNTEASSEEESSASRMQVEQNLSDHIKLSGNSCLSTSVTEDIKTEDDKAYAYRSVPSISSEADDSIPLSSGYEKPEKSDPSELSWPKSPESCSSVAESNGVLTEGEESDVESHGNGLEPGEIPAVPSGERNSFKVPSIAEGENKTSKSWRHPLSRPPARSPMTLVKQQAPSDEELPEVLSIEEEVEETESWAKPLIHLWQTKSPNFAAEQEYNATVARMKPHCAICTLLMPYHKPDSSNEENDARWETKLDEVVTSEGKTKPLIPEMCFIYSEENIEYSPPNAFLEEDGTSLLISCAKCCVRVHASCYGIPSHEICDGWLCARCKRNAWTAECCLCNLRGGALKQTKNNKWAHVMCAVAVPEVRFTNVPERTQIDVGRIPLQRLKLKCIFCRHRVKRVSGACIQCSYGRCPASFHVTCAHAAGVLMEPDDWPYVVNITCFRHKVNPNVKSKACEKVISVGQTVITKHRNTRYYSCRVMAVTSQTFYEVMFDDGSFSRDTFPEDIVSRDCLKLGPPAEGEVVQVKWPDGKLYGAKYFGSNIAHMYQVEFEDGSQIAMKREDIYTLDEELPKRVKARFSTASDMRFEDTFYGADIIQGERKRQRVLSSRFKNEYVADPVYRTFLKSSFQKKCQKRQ

[12] = molecular target: Prolyl hydroxylase EGLN2 (Homo sapiens, UniProt Q96KS0)
Chain of Prolyl hydroxylase EGLN2 (Q96KS0 whole entry): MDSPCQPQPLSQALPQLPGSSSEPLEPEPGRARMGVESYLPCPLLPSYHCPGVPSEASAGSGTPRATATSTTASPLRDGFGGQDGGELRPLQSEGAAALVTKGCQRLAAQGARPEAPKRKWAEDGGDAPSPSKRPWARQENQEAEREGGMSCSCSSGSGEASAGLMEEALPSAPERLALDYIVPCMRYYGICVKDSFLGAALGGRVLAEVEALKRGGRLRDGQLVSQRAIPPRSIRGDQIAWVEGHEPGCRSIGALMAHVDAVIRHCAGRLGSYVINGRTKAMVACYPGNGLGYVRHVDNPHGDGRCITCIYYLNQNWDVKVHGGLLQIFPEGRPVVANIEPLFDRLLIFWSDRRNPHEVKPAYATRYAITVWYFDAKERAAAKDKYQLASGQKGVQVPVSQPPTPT

SMILES: O=C(O)CC[C@H](O)C(=O)O
- pIC50 [3]: 4.32

SMILES: O=C(O)c1ccnc(C(=O)O)c1Nc1ccccc1F
- pIC50 [4]: < 3.40

SMILES: O=C(O)CC[C@@H](O)C(=O)O
- pIC50 [3]: 3.97

SMILES: NC1CC1c1cc(F)cc(F)c1OCc1ccccc1 (configuration not stated)
- pKi [1]: 3.96
- pKi [2]: 4.77

SMILES: O=C(O)c1ccnc2c(O)cccc12
- pIC50 [4]: 4.85
- pIC50 [5]: 4.68

SMILES: S=C(SSC(=S)N1CCCC1)N1CCCC1 [BIS(PYRROLIDINYLTHIOCARBONYL)DISULFIDE]
- pIC50 [6]: 5.48

Results, then the compound that gave them:

- pKi [1]: 3.64
- pKi [2]: 3.13
SMILES: NC1CC1c1cccc(OCC[C@H](NC(=O)c2ccccc2)C(=O)NCc2ccccc2)c1 (some centres not stated)

- pKi [2]: < 3.88
SMILES: NC1CC1c1ccc(NC(=O)C(Cc2ccccc2)NC(=O)OCc2ccccc2)cc1 (configuration not stated)

- pKi [1]: 3.60
- pKi [2]: 2.77
SMILES: N[C@@H]1C[C@H]1c1ccc(OCC[C@H](NC(=O)c2ccccc2)C(=O)NCc2ccccc2)cc1

- inhibition [7]: inactive
SMILES: O=C(O)C(=O)N[C@H](Cc1ccc(OS(=O)(=O)c2ccc(Br)cc2)cc1)C(=O)O

- pIC50 [8]: 4.37
- pIC50 [9]: 5.00
- pIC50 [10]: 4.51
- pIC50 [6]: 5.37
- pIC50 [11]: 5.47
- pIC50 [4]: 4.08
- pIC50 [5]: 4.66
- pIC50 [12]: 4.27
SMILES: O=C(O)/C=C/C(=O)N(O)CCCCNCc1ccc(COC(=O)Nc2cccc3ccccc23)cc1
